Test results reported in patent US8093248B2, “Compounds useful for the treatment of conditions associated with weight gain” (AstraZeneca AB (PUBL), priority 2007, dated 2012).

Tests used:
[1] = tested on: JEG-3 cells; conditions: Biol. Reprod. (2007) 76: 203-10; cited from earlier work
[2] = tested on: JEG-3 cells; experiment: [3H]-thymidine incorporation in JEG-3 cells (JEG-3 protocol); assay type: cell-based; conditions: JEG-3 choriocarcinoma cell line, FIG. 6
Procedure: In JEG-3 cells (choriocarcinoma cell line) leptin is able to stimulate proliferation up to 3 fold (Biol. Reprod. (2007) 76: 203-10). […] The radioactivity incorporated by the cells is an index of their proliferative activity and is measured in counts per minute (CPM) with a liquid scintillation beta counter.
This finding can be applied to test whether a compound is able to either reproduce the effect of leptin on cell proliferation (leptin receptor agonist mimetic) (i.e., a given compound will cause an increase in incorporated [^3H]-Thymidine by the cells) or to inhibit the effect of leptin (antagonistic effect) by preventing the leptin-mediated increase in [^3H]-thymidine incorporation.

Substance: leptin: hormone synthesized in fat cells that is believed to act in the hypothalamus to reduce food intake and body weight
- stimulation of proliferation [1]: up to 3 fold
- concentration of maximal effect on [3H]-thymidine incorporation [2]: 100 nM
- EC50 ([2]; read-out: EC50 of concentration-dependent increase in [3H]-thymidine incorporation): 2.1 nM
